Source: patent US9592309B2, “Positron emission tomography probe to monitor selected sugar metabolism in vivo” (The Regents of the University of California, priority 2012, dated 2017)

How the values were obtained:
[1] = Positron emission tomography / computed tomography imaging of mice; format: in vivo; conditions: for tissues in which the probe selectively accumulates: mice, positron emission tomography
Description: Positron Emission Tomography, Computed Tomography Imaging. 6-12-week old C57BL/6J female mice and 12-week old female B6.V-Lep^ob/J (Ob/Ob) mice were purchased from the Jackson Laboratory. Animals were anesthetized with 2% isofluorane and injected intravenous in the tail vein with 75-150 μCi of [^18F]-FDA. One hour post-injection, the mice were imaged for 10 minutes on a Siemens Inveon PET scanner and 10 minutes on a MicroCAT II CT system. […] Journal of Digital Imaging 17 (3), 205 (2004)).

[2] = target: T1, 5′ FLAG-tagged human ribokinase (Homo sapiens, UniProt Q9H477); assay: Ribokinase assay (kinase reaction with isolated FLAG-tagged ribokinase); format: biochemical; conditions: 20 minutes at 37° C., 3 mM ATP
T1 construct: host or cells: 293T cells, transfected with pMSCV-IRES-YFP (pRBKS); captured with anti-FLAG M2 magnetic beads and eluted with FLAG peptide
Description: Human ribokinase plasmid was purchased from OriGene (NM_022128.1). A FLAG sequence was appended 5′ to the ribokinase sequence and the FLAG-tagged ribokinase was subcloned into the retroviral vector pMSCV-IRES-YFP (pRBKS). 293T cells were transfected with the pRBKS vector and Lipofectamine 2000 (Invitrogen) according to manufacturer's protocol. Cells were lysed in RIPA buffer (1% NP-40, 1% Sodium deoxycholate, 0.3% Sodium dodecyl sulfate, […], 1 mM EDTA, 50 mM Tris-HCl pH 6.8). Protein concentration was determined by the BCA Protein Assay Kit (Pierce), and FLAG-tagged ribokinase was captured from 1 mg of lysate with anti-FLAG M2 Magnetic Beads (Sigma) and eluted with 100 μL of FLAG peptide (Sigma), as per the manufacturer's protocol. Cells not transfected with RBKS were lysed as a control.
1 μL of FLAG-tagged ribokinase or control eluent was added to 50 mM Tris-HCl, pH 7.8, 3 mM ATP, 100 mM KCl, 10 mM MgCl2, 1× protease inhibitor cocktail (Roche), and 1 μCi [^3H]-Ribose (Moravek) or [^18F]-FDA in a 10 μL volume. […] In the case of [^3H]-ribose, the samples were dried, placed into scintillation vials, 3 mL of Bio-Safe NA (RPI Corp) was added to each vial, and the samples were measured on a scintillation counter. In the case of [^18F]-FDA, the samples were placed into scintillation vials and counted on a gamma counter. […]

[3] = system: non-oxidative pentose phosphate pathway; assay: Mass spectrometry analysis of 2-fluoro-2-deoxyarabinose metabolites in mouse organs (MRM LC-MS); format: in vivo; conditions: mice
Description: Mice (8-12 weeks old) were treated with 25 μL of 500 mM 2-fluoro-2-deoxyarabinose. 1 hour later, the mice were sacrificed and the metabolites from distinct organs were extracted with 3× with 80% MeOH. Extracted metabolites were dried and analyzed by multiple reaction monitoring liquid chromatography-mass spectrometry (MRM LC-MS).

[4] = system: enzymes in the pentose phosphate pathway; assay: Enzymes that metabolize 2-fluoro-2-deoxyarabinose in vitro (FIG. 6); format: in vitro ADME

T1 sequence (Q9H477 whole entry): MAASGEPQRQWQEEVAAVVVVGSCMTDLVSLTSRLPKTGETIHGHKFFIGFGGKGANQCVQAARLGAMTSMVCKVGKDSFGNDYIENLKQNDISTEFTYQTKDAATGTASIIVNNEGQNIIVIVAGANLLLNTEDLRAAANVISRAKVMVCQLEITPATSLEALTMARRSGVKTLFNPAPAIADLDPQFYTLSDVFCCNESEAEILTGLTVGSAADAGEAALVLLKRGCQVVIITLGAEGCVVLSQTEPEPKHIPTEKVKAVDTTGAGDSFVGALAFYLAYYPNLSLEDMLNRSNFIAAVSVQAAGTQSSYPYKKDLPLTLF

Compound | localization of probe to the liver ([1]; 12 week old C57Bl/6 female (wild-type) mice, 1 hour, PET/CT) | tissues in which the probe selectively accumulates [1] | tissues in which the probe selectively accumulates ([1]; listed as 18F labelled 2-fluoro-2-deoxyarabinose) | phosphorylation by isolated ribokinase [2] | metabolic pathway and metabolite in vivo ([3]; in vivo) | tissues that metabolize the probe ([3]; metabolite studies) | metabolism by enzymes in vitro [4]
OC[C@H]1O[C@@H](O)C([18F])C1O (some centres unmarked) [[^18F]-FDA, [^18F]-2-fluoro-2-deoxyarabinose] | localizing significantly to the liver | accumulates in organs with high levels of ribokinase | murine liver, kidney and intestinal tissues | phosphorylates | metabolized in vivo by the non-oxidative pentose phosphate pathway to 4-fluoro-4-deoxysedoheptulose-7-phosphate | metabolized by tissues in addition to the liver, including the spleen, muscles, heart, blood, thyroid, and kidneys | enzymes in the pentose phosphate pathway metabolize
[^3H]-Ribose [reference compound] |  |  |  | phosphorylates |  |  | 
